Test results taken from patent US5952307A, “Basic α-aminoalkylphosphonate derivatives” (priority 1997, dated 1999).
Where two headings read alike, the source gives them in different places.

How the values were obtained:
Assay type in all cases: biochemical
mast cell tryptase = mast cell tryptase (Homo sapiens, UniProt Q15661); experiment: Inactivation rate of mast cell tryptase, incubation method; conditions: for kobs /[I] mast cell tryptase: 25° C., NI = no inhibition; for kobsd /[I] mast cell tryptase: Table I, 0.1M Hepes, 10% glycerol, 10 mM heparin, pH 7.5, 25° C., 7.1% DMSO, NI = no inhibition after 25 min of incubation
Method in brief: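 Incubation method at 25 °C: 0.07 μM tryptase with 20–66 μM inhibitor in Hepes pH 7.5 containing heparin, glycerol and DMSO. Aliquots were withdrawn at intervals for residual activity on Z-Arg-SBzl or Z-Lys-SBzl with DTNB. Pseudo-first-order kobs came from ln(vt/v0) versus time.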

plasmin = target: T1, plasmin (Homo sapiens, UniProt P00747); experiment: Inactivation rate of plasmin, incubation method; conditions: Table III; for kobs /[I] plasmin: enzyme 0.06-0.5 μM, inhibitor 0.25-42 μM, 9% DMSO, 25° C., NI = no inhibition
T1 construct: factor Xa, plasmin, and urokinase
Protocol: (§1) Inactivation rates of serine proteases by aryl diesters of peptidyl derivatives of α-aminoalkylphosphonates were measured by the incubation method. An aliquot of inhibitor (25 or 50 μl) in Me2 SO was added to a buffered enzyme solution (0.01-2.3 μM) to initiate the inactivation. Aliquots (50 μl) were withdrawn at various intervals and the residual enzymatic activity was measured. Me2 SO concentration in the reaction mixture was 8-12% (v/v). A 0.1 M HEPES, 0.01 M CaCl2, pH 7.5 buffer was utilized for trypsin and trypsin-like enzymes. A 0.1 M HEPES, 0.5 M NaCl, pH 7.5, was utilized for the other serine proteases. Peptide thioesters or peptide nitroanilides with the appropriate sequences were used as substrates for various serine proteases. All peptide thioesters hydrolysis rates were measured with the assay mixture containing 4,4'-dithiodipyridine {ε324 =19800 M^-1 cm^-1; Grasetti & Murray, Arch. Biochem. Biophys. 1967, 119, 41-48}. Peptide 4-nitroanilide hydrolysis was measured at 410 nm {ε410 =8800 M^-1 cm^-1; Erlanger et al., Arch. Biochem. Biophys. 1961, 95, 271-278}. First order inactivation rate constants (Kobs) were obtained from plots of In vt /vo vs time, and the correlation coefficients were greater then 0.98.
(§2) ^a Enzyme (0.06-0.5 μM) was incubated with the inhibitor (0.25-42
(§3) μM) in 250 μL of the proper buffer containing 9% DMSO at 25°
(§4) C. The final inhibition reaction mixtures are given in the footnote to
(§5) Table 1. Aliquots of 25 μL were withdrawn at various intervals and the
(§6) residual enzymatic activity was measured as described in experimental
(§7) section. The kobs values were calculated from pseudofirst-order
^b Inhibitor concentration of 0.24 mM.

bovine trypsin [1] = target: T2, bovine trypsin (Bos taurus, UniProt P00760); experiment: Inactivation rate of bovine trypsin, incubation method; conditions: Table III; enzyme 0.06-0.5 μM, inhibitor 0.25-42 μM, 9% DMSO, 25° C.; NI = no inhibition
T2 sequence (P00760 24-246): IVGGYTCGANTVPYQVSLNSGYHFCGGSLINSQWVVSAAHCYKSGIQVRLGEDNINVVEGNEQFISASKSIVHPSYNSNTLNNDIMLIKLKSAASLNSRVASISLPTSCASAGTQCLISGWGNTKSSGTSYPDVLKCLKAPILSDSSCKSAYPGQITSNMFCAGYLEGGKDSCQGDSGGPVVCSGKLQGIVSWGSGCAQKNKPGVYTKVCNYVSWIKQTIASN

human thrombin = target: T3, human thrombin (Homo sapiens, UniProt P00734); conditions: 25° C., NI = no inhibition
T3 construct: bovine trypsin, human thrombin
Method in brief: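 Irreversible inactivation followed by incubation method at 25 °C: 0.07 μM thrombin with 0.25–42 μM inhibitor in 80 mM Hepes pH 7.5, 428 mM NaCl, 8% DMSO. Residual activity of withdrawn aliquots measured with thioester or 4-nitroanilide substrates; kobs from pseudo-first-order fits.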

urokinase = urokinase (Homo sapiens, UniProt P00749); experiment: Inactivation rate of urokinase, incubation method; conditions: Table III; enzyme 0.06-0.5 μM, inhibitor 0.25-42 μM, 9% DMSO, 25° C.; NI = no inhibition
Protocol: as §1, §2, §3, §4, §5, §6, §7

rat granzyme K = target: T4, rat granzyme K (Rattus norvegicus, UniProt P49864); experiment: Inactivation rate of rat granzyme K, incubation method; conditions: Table I; 0.1M Hepes, 0.01M CaCl2 pH 7.5, 25° C., 7.1% DMSO, substrate Z--Arg--SBzl; NI = no inhibition after 25 min of incubation
T4 sequence (P49864 26-258): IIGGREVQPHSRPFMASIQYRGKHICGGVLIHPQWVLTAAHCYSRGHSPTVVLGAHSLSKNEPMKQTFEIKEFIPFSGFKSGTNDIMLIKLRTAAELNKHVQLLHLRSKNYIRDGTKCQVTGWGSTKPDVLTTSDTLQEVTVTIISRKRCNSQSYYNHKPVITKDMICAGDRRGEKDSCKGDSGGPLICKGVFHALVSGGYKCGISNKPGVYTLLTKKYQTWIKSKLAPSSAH
Method in brief: (§8)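 Inhibitor in DMSO added to enzyme (0.01-2.3 μM) in 0.1 M HEPES, 0.01 M CaCl2, pH 7.5, 25° C (DMSO 7.6% for granzyme A, 7.1% for granzyme K); residual activity on Z-Arg-SBzl with DTNB read at intervals. Kobs from ln vt/vo vs time plots.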

rat granzyme A = experiment: Inactivation rate of rat granzyme A, incubation method; conditions: Table I; 0.1M Hepes, 0.01M CaCl2 pH 7.5, 25° C., 7.6% DMSO, substrate Z--Arg--SBzl
Protocol: as §1
^a Inhibition constants were measured in 0.1M Hepes, 0.01M CaCl2
pH 7.5 for trypsin, granzymes A, and K, and in 0.1M Hepes, 10% glycerol,
10 mM heparin, pH 7.5 for mast cell tryptase, and at 25° C. The
reaction mixtures contained 2% DMSO for trypsin, 7.6% for granzyme A, and
7.1% for granzyme K and tryptase. The substrate was Z--Arg--SBzl for
granzymes and trypsin, and Z--Arg--SBzl or Z--Lys--SBzl for tryptase in
the presence of DTNB. The inhibitor # concentration ranged from 0.001 to
^b NI, no inhibition after 25 min of incubation with enzyme.

human granzyme A = target: T5, human granzyme A (Homo sapiens, UniProt P12544); experiment: Inactivation rate of human granzyme A, incubation method; conditions: Table I; 0.1M Hepes, 0.01M CaCl2 pH 7.5, 25° C., 7.6% DMSO, substrate Z--Arg--SBzl
T5 sequence (P12544 29-262): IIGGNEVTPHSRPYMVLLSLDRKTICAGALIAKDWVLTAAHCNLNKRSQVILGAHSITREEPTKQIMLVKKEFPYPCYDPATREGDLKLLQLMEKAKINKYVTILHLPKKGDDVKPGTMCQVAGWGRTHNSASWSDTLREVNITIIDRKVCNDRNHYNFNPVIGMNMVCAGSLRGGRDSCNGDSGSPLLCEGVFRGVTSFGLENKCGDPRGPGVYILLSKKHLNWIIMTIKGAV
Method in brief: as §8

bovine trypsin [2] = target: T2, bovine trypsin; experiment: Inactivation rate of bovine trypsin, incubation method; conditions: for kobsd /[I] bovine trypsin: Table I, 0.1M Hepes, 0.01M CaCl2 pH 7.5, 25° C., 2% DMSO, substrate Z--Arg--SBzl, NI = no inhibition after 25 min; for kobs /[I] bovine trypsin: Table II, 0.13 μM trypsin, 0.25-42 μM inhibitor, 80 mM Hepes pH 7.5, 1 mM CaCl2, 8% DMSO, 25° C., NI = no inhibition
Method in brief: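 Incubation method: trypsin pre-incubated with inhibitor (0.25-42 μM) at 25° C in 80 mM Hepes, 1 mM CaCl2, pH 7.5, 8% DMSO; aliquots withdrawn over time for residual activity on Z-Arg-SBzl thioester with DTNB or 4,4'-dithiodipyridine. Pseudo-first-order kobs from ln vt/vo versus time.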

[3] = Table III, enzyme 0.06-0.5 μM, inhibitor 0.25-42 μM, 9% DMSO
[4] = Table II, 0.07 μM tryptase, 20-66 μM inhibitor, Hepes pH 7.5, heparin, 9% glycerol, 8% DMSO
[5] = Table II, 0.07 μM thrombin, 0.25-42 μM inhibitor, 80 mM Hepes pH 7.5, 428 mM NaCl, 8% DMSO

T1 sequence (P00747 581-810 limits assumed, species assumed): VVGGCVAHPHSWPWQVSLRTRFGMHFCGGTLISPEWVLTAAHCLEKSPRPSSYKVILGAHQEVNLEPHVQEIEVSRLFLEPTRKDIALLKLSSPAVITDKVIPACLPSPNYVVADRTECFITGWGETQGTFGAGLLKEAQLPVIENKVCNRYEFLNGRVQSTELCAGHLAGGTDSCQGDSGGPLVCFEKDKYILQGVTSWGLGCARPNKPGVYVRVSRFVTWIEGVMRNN
T1 sequence (P00747 97-580 partner limits assumed, species assumed): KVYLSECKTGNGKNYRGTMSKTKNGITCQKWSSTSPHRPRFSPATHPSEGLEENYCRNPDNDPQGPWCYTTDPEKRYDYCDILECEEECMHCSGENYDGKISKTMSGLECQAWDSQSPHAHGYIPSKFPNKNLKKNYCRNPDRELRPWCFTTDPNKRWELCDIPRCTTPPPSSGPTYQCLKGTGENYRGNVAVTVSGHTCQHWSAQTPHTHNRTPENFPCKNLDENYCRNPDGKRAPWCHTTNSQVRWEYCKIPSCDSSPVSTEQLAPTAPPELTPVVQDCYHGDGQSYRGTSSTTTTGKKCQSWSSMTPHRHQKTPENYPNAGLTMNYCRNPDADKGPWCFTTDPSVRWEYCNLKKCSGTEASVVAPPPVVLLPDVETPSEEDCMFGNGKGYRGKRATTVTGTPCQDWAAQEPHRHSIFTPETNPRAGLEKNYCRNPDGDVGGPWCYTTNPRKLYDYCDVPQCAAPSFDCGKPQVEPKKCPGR
mast cell tryptase, sequence (Q15661 31-275): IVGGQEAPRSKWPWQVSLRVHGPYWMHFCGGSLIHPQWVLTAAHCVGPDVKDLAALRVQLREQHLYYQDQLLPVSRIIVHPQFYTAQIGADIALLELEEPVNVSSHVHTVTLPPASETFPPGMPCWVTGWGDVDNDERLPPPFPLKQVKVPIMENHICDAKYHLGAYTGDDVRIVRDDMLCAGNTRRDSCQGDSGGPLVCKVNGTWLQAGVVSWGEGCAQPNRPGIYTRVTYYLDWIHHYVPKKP

## Cl.NCCCCCC(NC(=O)[C@@H]1CCCN1C(=O)c1ccccc1Oc1ccccc1)P(=O)(Oc1ccccc1)Oc1ccccc1 (some centres unmarked) [2-Phenoxybenzoyl-Pro-HomoLys^P (OPh)2, Diphenyl 1-(N-(2-Phenoxybenzoylprolyl)amino)-6-aminohexanephosphonate Hydrochloride]
Mast cell tryptase; [3]
  kobs /[I] mast cell tryptase: 7.7 ± 0.3 M⁻¹ s⁻¹
plasmin
  kobs /[I] plasmin: 3.6 ± 0.4 M⁻¹ s⁻¹
Bovine trypsin [1]
  kobs /[I] bovine trypsin: 69 ± 13 M⁻¹ s⁻¹
Human thrombin; [3]
  kobs /[I] human thrombin: 57 ± 5 M⁻¹ s⁻¹
urokinase
  kobs /[I] urokinase: 24 ± 4 M⁻¹ s⁻¹

## CC(O)C(NC(=O)OCc1ccccc1)C(=O)NC(CCCCN)P(=O)(Oc1ccccc1)Oc1ccccc1 (mixture of isomers) [Cbz--Thr--Lys^P (OPh)2]
Mast cell tryptase; [3]
  kobs /[I] mast cell tryptase: 7 ± 1 M⁻¹ s⁻¹
Bovine trypsin [1]
  kobs /[I] bovine trypsin: 230 M⁻¹ s⁻¹
urokinase
  kobs /[I] urokinase: 0.7 ± 0.1 M⁻¹ s⁻¹

## Diphenyl N-(N-Benzyloxycarbonyl)amino(6-aminohexyl)methanephosphonate [Cbz-HomoLys^P (OPh)2]
Mast cell tryptase; [3]
  kobs /[I] mast cell tryptase: 0.7 M⁻¹ s⁻¹
Bovine trypsin [1]
  kobs /[I] bovine trypsin: 21 ± 6 M⁻¹ s⁻¹
urokinase
  kobs /[I] urokinase: 1.0 ± 0.0 M⁻¹ s⁻¹

## Cl.NCCCCC(NC(=O)OCc1ccccc1)P(=O)(Oc1ccccc1)Oc1ccccc1 (centres unmarked) [Cbz--Lys^P (OPh)2, Diphenyl N-(N-Benzyloxycarbonyl)amino(4-aminobutyl)methanephosphonate Hydrochloride]
Mast cell tryptase; [3]
  kobs /[I] mast cell tryptase: 17 ± 1 M⁻¹ s⁻¹
plasmin
  kobs /[I] plasmin: 8.2 ± 0.4 M⁻¹ s⁻¹
Bovine trypsin [1]
  kobs /[I] bovine trypsin: 6,235 M^-1 s^-1
Human thrombin; [3]
  kobs /[I] human thrombin: 17 M⁻¹ s⁻¹
urokinase
  kobs /[I] urokinase: 15 ± 2 M⁻¹ s⁻¹

## NCCCCCC(NC(=O)C1CCCN1C(=O)CNS(=O)(=O)Cc1ccccc1)P(=O)(Oc1ccccc1)Oc1ccccc1 (mixture of isomers) [PhCH2 SO2 Gly--Pro-HomoLys^P (OPh)2]
Mast cell tryptase; [3]
  kobs /[I] mast cell tryptase: 32 ± 2 M⁻¹ s⁻¹
plasmin
  kobs /[I] plasmin: 8.4 ± 0.2 M⁻¹ s⁻¹
Bovine trypsin [1]
  kobs /[I] bovine trypsin: 528 ± 59 M⁻¹ s⁻¹
Human thrombin; [3]
  kobs /[I] human thrombin: 137 ± 12 M⁻¹ s⁻¹
urokinase
  kobs /[I] urokinase: 38 ± 3 M⁻¹ s⁻¹

## Cl.NCCCCC(NC(=O)[C@@H]1CCCN1C(=O)c1ccccc1Oc1ccccc1)P(=O)(Oc1ccccc1)Oc1ccccc1 (some centres unmarked) [2-Phenoxybenzoyl-Pro--Lys^P (OPh)2, Diphenyl 1-(N-(2-Phenoxybenzoylprolyl)amino)-5-aminopentanephosphonate Hydrochloride]
Mast cell tryptase; [3]
  kobs /[I] mast cell tryptase: 19 ± 1 M⁻¹ s⁻¹
plasmin
  kobs /[I] plasmin: 7.1 ± 0.2 M⁻¹ s⁻¹
Bovine trypsin [1]
  kobs /[I] bovine trypsin: 16,411 ± 460 M^-1 s^-1
Human thrombin; [3]
  kobs /[I] human thrombin: 4,531 ± 140 M^-1 s^-1
urokinase
  kobs /[I] urokinase: 0.6 ± 0.1 M⁻¹ s⁻¹

## NCCCCCC(NC(=O)C1CCCN1C(=O)C(N)Cc1ccccc1)P(=O)(Oc1ccccc1)Oc1ccccc1 (mixture of isomers) [D--Phe--Pro-HomoLys^P (OPh)2]
Mast cell tryptase; [3]
  kobs /[I] mast cell tryptase: 4.1 0.2 M^-1 s^-1
Bovine trypsin [1]
  kobs /[I] bovine trypsin: 164 ± 14 M⁻¹ s⁻¹
Human thrombin; [3]
  kobs /[I] human thrombin: 1,342 ± 272 M^-1 s^-1
urokinase
  kobs /[I] urokinase: 7.8 ± 0.0 M⁻¹ s⁻¹

## NCCCCCC(NC(=O)[C@@H]1CCCN1C(=O)CC(c1ccccc1)c1ccccc1)P(=O)(Oc1ccccc1)Oc1ccccc1 (some centres unmarked) [3,3-Diphenylpropanoyl-Pro-HomoLys^P (OPh)2]
Mast cell tryptase; [3]
  kobs /[I] mast cell tryptase: 1.1 ± 0.0 M⁻¹ s⁻¹
plasmin; inhibitor concentration of 0.24 mM
  % Inh plasmin: 50%
Bovine trypsin [1]
  kobs /[I] bovine trypsin: 16 ± 1 M⁻¹ s⁻¹
Human thrombin; [3]
  kobs /[I] human thrombin: 224 ± 8 M⁻¹ s⁻¹
urokinase
  kobs /[I] urokinase: 2.1 ± 0.2 M⁻¹ s⁻¹

## Cl.N=C(N)c1ccc(C(NC(=O)C=Cc2cccs2)P(=O)(Oc2ccccc2)Oc2ccccc2)cc1 (centres unmarked) [Diphenyl N-(3-(2-Thienyl)acryloyl)amino(4-amidinophenyl)methanephosphonate Hydrochloride]
Rat granzyme K
  kobsd /[I] rat granzyme K: 4 M⁻¹ s⁻¹
Rat granzyme A
  kobsd /[I] rat granzyme A: 430 ± 31 M⁻¹ s⁻¹
Mast cell tryptase
  kobsd /[I] mast cell tryptase: 1 M⁻¹ s⁻¹
Mast cell tryptase; [4]
  kobs /[I] mast cell tryptase: 1 M⁻¹ s⁻¹
Human granzyme A
  kobsd /[I] human granzyme A: 740 ± 18 M⁻¹ s⁻¹
Human thrombin; [5]
  kobs /[I] human thrombin: 90 ± 4 M⁻¹ s⁻¹
Bovine trypsin [2]
  kobsd /[I] bovine trypsin: 300 ± 22 M⁻¹ s⁻¹
  kobs /[I] bovine trypsin: 300 ± 22 M⁻¹ s⁻¹

## Cl.NCCCCCC(NC(=O)[C@@H]1CCCN1C(=O)c1cccc(Oc2ccccc2)c1)P(=O)(Oc1ccccc1)Oc1ccccc1 (some centres unmarked) [3-Phenoxybenzoyl-Pro-HomoLys^P (OPh)2, Diphenyl 1-(N-(3-Phenoxybenzoylprolyl)amino)-6-aminohexanephosphonate Hydrochloride]
Mast cell tryptase; [3]
  kobs /[I] mast cell tryptase: 10 ± 3 M⁻¹ s⁻¹
plasmin
  kobs /[I] plasmin: 4.6 ± 0.1 M⁻¹ s⁻¹
Bovine trypsin [1]
  kobs /[I] bovine trypsin: 116 ± 34 M⁻¹ s⁻¹
Human thrombin; [3]
  kobs /[I] human thrombin: 27 ± 5 M⁻¹ s⁻¹
urokinase
  kobs /[I] urokinase: 22 ± 1 M⁻¹ s⁻¹

## CC(NC(=O)OCc1ccccc1)C(=O)NC(C)C(=O)NC(C)C(=O)NC(c1ccc(C(=N)N)cc1)P(=O)(Oc1ccccc1)Oc1ccccc1 (mixture of isomers) [Cbz--Ala--Ala--Ala-(4-AmPhGly)^P (OPh)2]
Rat granzyme K
  kobsd /[I] rat granzyme K: 7 M⁻¹ s⁻¹
Rat granzyme A
  kobsd /[I] rat granzyme A: 590 ± 17 M⁻¹ s⁻¹
Mast cell tryptase
  kobsd /[I] mast cell tryptase: 2 M⁻¹ s⁻¹
Mast cell tryptase; [4]
  kobs /[I] mast cell tryptase: 2.0 ± 0.2 M⁻¹ s⁻¹
Human granzyme A
  kobsd /[I] human granzyme A: 730 ± 15 M⁻¹ s⁻¹
Human thrombin; [5]
  kobs /[I] human thrombin: 1,290 ± 26 M^-1 s^-1
Bovine trypsin [2]
  kobsd /[I] bovine trypsin: 1780 ± 33 M⁻¹ s⁻¹
  kobs /[I] bovine trypsin: 1,780 ± 33 M^-1 s^-1
